Each structure is given as a SMILES string. Bounds are passed on as bounds.

`CC=CCn1c(C)c(C)c2cnnc(CCc3ccccc3)c21`: the melting point (commonly the temperature, or range, at which the solid turns liquid) lay in the range of 98 to 106 °C.

`O=C(O)c1cnc(O)cc1Cl` displayed a melting point of 299 to 300 °C.

Regarding `O=[N+]([O-])c1ccc(Oc2ncc(C(F)(F)F)cc2Cl)cc1`, the melting point was 90 to 91 °C.

In the case of `COC(=O)[C@H]1CC[C@H](NC(=O)c2cc(-c3ccc(C#N)cc3)nnc2N2CCOCC2)CC1`, the melting point was 269 to 271 °C.

`CCCc1c(OCCCCCCc2ccc(OC)c(OC)c2Cl)ccc(C(=O)O)c1O`: the melting point lay within 107 to 108 °C.

`CCOc1cc(-c2nc(-c3cnc(N)c(C)c3)no2)ccc1-c1ccccc1C(F)(F)F`: the melting point lay in the range of 163 to 165 °C.

Compound `O=C(N1CCOCC1)N1Cc2c(-c3noc(C4CC4)n3)ncn2-c2ccccc21` registered a melting point of 198 °C.

As for `CCOC(=O)CN1C(=O)C(N2C(=O)c3ccccc3C2=O)CCCc2ccccc21` (configuration not stated), the melting point lay in the range of 79 to 81 °C.

Regarding `CCOC(=O)c1ccc2nc[nH]c2c1`, the melting point was 93 to 94 °C.

Compound `CN(C)S(=O)(=O)c1ccccc1S(=O)(=O)NC(=O)Nc1nc(F)cc(OC(F)(F)F)n1` showed a melting point of 167 to 169 °C.

`CCCCCc1c(/C=C/C(=O)O)n(C)c2cc(OC)ccc12`: the melting point was in the range of 157 to 158 °C.

`O=C(Nc1ccc2ccccc2c1-c1c(P(c2ccccc2)c2ccccc2)ccc2ccccc12)c1ccccc1` registered a melting point of 94.8 °C.

In turn, `CC(C)(C)n1nnc(-c2ccc(CCC(=O)O)cc2)n1` came in with a melting point of 88 to 90 °C.

`O=C1c2cscc2Nc2ccccc2N1Cc1ccc(Cl)c(C(F)(F)F)c1` yielded a melting point of 181 to 183 °C.

The compound `CN(Cc1cc2c3c(c1)c(=O)c(C(=O)NCc1ccc(F)cc1)cn3CC(=O)N2C)C[C@@H](O)c1cccnc1` showed a melting point of 108 to 110 °C.

In the case of `CCCCCCCCCCCCCCCCCC1OCC(COC(O)CCCCC=O)O1` (configuration not stated), the melting point fell in the range of 53.6 to 55.7 °C.

`OCC1OC(OCc2ccccc2)C(O)C1O` (configuration not stated) yielded a melting point of 95 °C.

Compound `CC1=Nc2c3c(C)cnc-3ccn2C1` had a melting point of 211 °C.

Compound `O=C(CCCc1ccccc1)c1cccc(OCc2ccc3ccccc3c2)c1` had a melting point of 75 to 76 °C.

The compound `Cn1cnc(COc2nn3c(-c4ccc(F)cc4)nnc3cc2-c2ccsc2)n1` returned a melting point of 254 to 255 °C.

The compound `Cc1nc2c(cc1Cl)C(=O)OC2=O` displayed a melting point of 140 to 141 °C.

The compound `CCOC(=O)c1c(C)n(-c2ccc(N(CC)CC)cc2)c(C)c(C(=O)OCC)c1=O` returned a melting point of 138 °C.

Turning to `CC(C)(C)OC(=O)n1cnc2c(I)cc(F)cc21`, the melting point fell in the range of 73 to 74 °C.

`CCOC(=O)c1c(Cn2cncn2)nc2sc(C)c(C)c2c1-c1ccc(OC)c(OC)c1` gave a melting point of 136 to 137 °C.

`OCCCc1cnoc1-c1ccc(C(F)(F)F)cc1` gave a melting point of 85 to 86 °C.

In turn, `O=C1Nc2cc(F)c(F)cc2N2CCNCC12` (configuration not stated) yielded a melting point of 226 to 228 °C.

In turn, `CC(C(=O)O)c1ccc(C=C2CCCCC2=O)cc1` (configuration not stated) gave a melting point of 108 to 110 °C.

Turning to `CCCNC(=O)C1(CCCc2ccc(N3C(=O)c4ccccc4C3=O)cc2)c2ccccc2-c2ccccc21`, the melting point was 148 to 151 °C.

`NC(=O)c1ccc(NCc2ccc(F)cc2)cn1` registered a melting point of 166 to 169 °C.

On to `O=P1(c2cccc(C(F)(F)F)c2)c2ccccc2CN1c1ccccc1` (configuration not stated), for which the melting point was 48 to 51 °C.

In turn, `CS(=O)(=O)NC1CCN(Cc2ccccc2)CC1` showed a melting point of 135 to 136 °C.

Compound `O=c1ccc(-c2c(-c3ccccc3)nn3ccccc23)nn1C1CCCC(O)C1` (configuration not stated) returned a melting point of 117 to 118 °C.

For `CCN(CC)CC(C)N1c2ccccc2Sc2ccc(C#N)cc21` (configuration not stated), the melting point was determined as 83 °C.

`Cc1cc(NS(=O)(=O)c2ccccc2)cc(C)c1S(=O)C[N+](=O)[O-]` (configuration not stated) yielded a melting point above 50 °C.

For the compound `C=CCNc1nc(NC/C=C/c2ccccc2)c2scc(C)c2n1`, the melting point was in the range of 82 to 84 °C.

Compound `O=C(O)c1cc([N+](=O)[O-])ccc1Nc1ccc(CCCCCc2ccc(Cl)c(Cl)c2)cc1` registered a melting point of 147 to 148 °C.

As for `CN(C1CC(C)(C)Oc2ccc(O)cc21)S(C)(=O)=O` (configuration not stated), the melting point lay in the range of 159 to 161 °C.

Compound `C1=C(c2ccccc2)CCN(Cc2n[nH]c3c2CCc2ccccc2-3)C1` came in with a melting point of 175 to 176 °C.

With `O=c1[nH]nc2n1C=Cc1ccccc1C2`, the melting point is 208 to 210 °C.

`Nc1ncc(-c2cccc(F)c2)nc1C(=O)Nc1cccnc1` returned a melting point of 234 to 238 °C.

The compound `Cn1cncc1C(O)(c1ccc(F)cc1)c1ccc2c(c1)C(c1cccc(Cl)c1)n1nnnc1N2` (configuration not stated) showed a melting point of 180 °C.

The compound `Cc1noc(C)c1C(=O)Nc1ccc(-n2nc(C(F)(F)F)cc2C(F)(F)F)cc1` had a melting point of 179 to 180 °C.

Consider `CCOC(=O)C(=CNc1cnsn1)C(=O)c1cc(F)c(F)c(F)c1F`, for which the melting point fell in the range of 81 to 83 °C.

Regarding `CN1Cc2c(-c3nc(CN)no3)ncn2-c2ccccc2C1=O`, the melting point lay within 183 to 185 °C.

`CON=Cc1nc2c(N)nc3cc(-c4ccccc4)ccc3c2s1`: the melting point was 259 to 261 °C.

In turn, `Cc1cc(CCCCCOc2ccc(C3=NCCO3)cc2C(F)F)on1` had a melting point of 80 to 89 °C.

As for `CC1=NN=C(c2ccc(NC(=O)CN)cc2)c2cc3c(cc2C1)OCO3`, the melting point lay in the range of 223 to 225 °C.

Take `Nc1cc(Cl)cc2c1NCCC2=O`: the melting point was in the range of 142 to 144 °C.

`COC1=C(OC)C(=O)C2=C(CCC(CCOc3ccc4c(c3)OCO4)CC2)C1=O`: the melting point lay in the range of 75 to 78 °C.

`CS(=O)(=O)NC(=O)CCn1c2ccc(O)cc2c2c3c(c(-c4ccccc4Cl)cc21)C(=O)NC3=O` returned a melting point of 290 to 296 °C.

Turning to `COc1cc(N)c(Cl)cc1-c1nn(C2CC3CCC(C2)N3C)c(=O)o1` (configuration not stated), the melting point was 208 °C.

`Oc1cc(Cl)c(-c2nnn[nH]2)cc1Oc1ccc(Cl)cc1Cl` showed a melting point of 174 to 180 °C.

In turn, `Cc1ccc(NC(=O)NCc2ccc3c(c2)CN(C2CCC(=O)N(COC(=O)C4CCN(C(=O)OC(C)(C)C)CC4)C2=O)C3=O)cc1Cl` (configuration not stated) displayed a melting point of 157 to 159 °C.

For the compound `COc1cc2c(cc1Nc1ncc(Cl)c(N[C@@H]3CCCC[C@H]3NS(C)(=O)=O)n1)CCN(CC(=O)N(C)C)CC2`, the melting point was in the range of 92 to 97 °C.

For `Clc1ccc(C2(CBr)OCC(c3ccccc3)O2)cc1` (configuration not stated), the melting point was 60 °C.

For `O=C1NCN(c2ccccc2)C12CCN(CCCNc1ccc(F)cc1)CC2`, the melting point is 158 to 162 °C.

On to `CC(=O)c1ccc2ccc3c(c2c1)C(CCl)CN3C(=O)OC(C)(C)C` (configuration not stated), for which the melting point fell in the range of 98 to 100 °C.

`C=CC(=O)N1CCSC1c1cc(C(C)(C)C)c(O)c(C(C)(C)C)c1` (configuration not stated) had a melting point of 147 to 149 °C.

The compound `CCCCCCCCc1sc(NC(=O)C2(C)Cc3cc(C)ccc3N2Cc2cccc(C(=O)OC)c2)nc1-c1cc(OC)c(Cl)cc1OC` (configuration not stated) gave a melting point of 165 to 166 °C.

In the case of `COCCCNc1nc2cc(Cl)c(Cl)cc2nc1-c1ccccn1`, the melting point is 99.5 to 100 °C.

Compound `Cc1nc2cnccc2n1-c1ccc2c(c1)CC(C#N)C2` (configuration not stated) showed a melting point of 174 to 176 °C.

For `CCOC(=O)C(C#N)=CNc1cccc(I)c1`, the melting point lay within 140 to 141 °C.

On to `CC(=O)On1c(C)csc1=S`, for which the melting point fell in the range of 100 to 101 °C.

`COc1cc(OC)c(-c2cccs2)cc1/C=C/C(=O)c1ccc(S(=O)(=O)NCCN2CCOCC2)cc1` showed a melting point of 171 to 172 °C.

In turn, `Cc1nn(C)c(NCC(C)(C)C)c1NCc1ccncc1` gave a melting point of 88 to 90 °C.

The compound `Fc1ccc(-c2cc(N3CCC(c4ncc[nH]4)CC3)c3sccc3n2)cc1` had a melting point of 95 °C.

Turning to `CC(=O)NC[C@H]1CN(c2ccc(N3C[C@@H]4C[C@H]3CO4)c(F)c2)C(=O)O1`, the melting point was in the range of 60 to 65 °C.

The compound `COc1cccc(CC(=O)O)c1OCCCc1cn(-c2ccc(C(F)(F)F)cn2)nc1-c1ccccc1` showed a melting point of 134 to 135 °C.

In turn, `COc1ccc(C2(c3ccc(OC)cc3)CCN(C[C@@H]3C=C4c5cccc6[nH]c(Cl)c(c56)C[C@H]4N(C)C3)CC2)cc1` came in with a melting point above 204 °C.

Regarding `COc1ccc(C=C2CCCN2Cc2ccccc2)cc1OC`, the melting point stood at 105 °C.

In turn, `CCOC(=O)C(CCCc1ccccc1)(NC(C)=O)C(=O)OCC` gave a melting point of 76 to 77 °C.

In turn, `CC1(C)CC(=O)c2c(-c3ccccn3)cn(-c3ccccn3)c2C1` returned a melting point of 171 to 174 °C.

The compound `COc1cccc2c1nc(C(F)F)n2-c1nc(Nc2ccc(N(C)C)nc2)nc(N2CCOCC2)n1` registered a melting point of 136 to 137 °C.

For the compound `CN(C(=O)c1cnc2c(C(F)(F)F)cccc2c1-c1ccccc1)c1ccccc1`, the melting point was 188 to 190 °C.

With `CCOC(=O)CCC(=O)c1cnc2c(OC)cccc2c1NCc1ccccc1`, the melting point fell in the range of 201 to 202 °C.

Compound `O=c1ccn(-c2cccnc2)nc1-c1ccnn1-c1ccccc1` displayed a melting point of 176 to 177 °C.

In the case of `CCCCC[C@H]1CC[C@H](CCCOc2ccc(O)cc2)CC1`, the melting point is 100 to 101 °C.

Regarding `CCc1nn2c(-c3ccc(OC)cc3OC)cccc2c1N(CC)CCF`, the melting point was 51.2 to 53.6 °C.

For `C=CCN1CCCC1CNC(C)=O` (configuration not stated), the melting point amounted to 42 °C.

`CC1(C)OC(=O)N(c2ccc(F)c(F)c2)c2ccccc21`: the melting point was in the range of 207 to 208 °C.

For the compound `Fc1cccc(Cl)c1COc1cccnc1NC(=S)Nc1ccccc1`, the melting point lay in the range of 143 to 145 °C.

As for `CC(C)(C)c1ccc2c(c1)OC(C(F)(F)C(F)(F)F)C(C(=O)O)=C2` (configuration not stated), the melting point lay in the range of 171 to 174 °C.

As for `C#Cc1cc2c(=O)nc(CCCC)[nH]c2cc1F`, the melting point worked out at 218 °C.

Regarding `CCCCC1=N/C(=C\c2c[nH]c3ncc(Cl)cc23)C(=O)N1C`, the melting point lay within 295 to 300 °C.

As to `O=C(O)CCCOc1cccc(-c2n[nH]c3c2Cc2ccccc2-3)c1`, the melting point fell in the range of 216 to 217 °C.

`Clc1ccc(CCC(Cn2ccnc2)Sc2cccc(Cl)c2Cl)cc1` (configuration not stated) gave a melting point of 134 to 136 °C.

With `O=C(/C=C/c1ccc(C(=O)Nc2cccc(Nc3nc(-c4cccnc4)cs3)c2)cc1)NOC1CCCCO1` (configuration not stated), the melting point is 158 °C.

The record behind these values is a melting point compilation (Tetko et al.; mined from patent text by program, amines drawn as free bases though some values may be those of a salt).
